Data reported in patent US20250018048A1, “FLUCONAZOLE-COX INHIBITOR HYBRIDS: A DUAL-ACTING CLASS OF ANTIFUNGAL AZOLES” (Ramot at Tel-Aviv University Ltd., priority 2022, published 2025).
Values after ≈ are worked out from the molar mass of the structure shown. “Also recorded” adds a separate entry of the source.

Experiments:
Type in all cases: cell-based
C. albicans ATCC 24433 = assay: MIC80 broth double-dilution assay; details: YPAD medium, 30° C., 24 h; for MIC80: Candida albicans, ATCC24433, read-out: MIC80 against C. albicans 24433
In short: (§1)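 CLSI M27-A3 (modified) microdilution, YPAD, 0.003–64 μg/mL two-fold series; inoculum 1×10^−3 OD600 then 1:100. 24 h, 30° C. Endpoint: OD600 >80% below no-drug control.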

C. albicans ATCC 90028 = assay: MIC80 broth double-dilution assay; details: YPAD medium, 30° C., 24 h; for MIC80: Candida albicans, ATCC90028, read-out: MIC80 against C. albicans 90028
In short: as §1

C. guilliermondii T-47 = assay: MIC80 broth double-dilution assay; details: YPAD medium, 30° C., 24 h; for MIC80: Meyerozyma guilliermondii, T47, read-out: MIC80 against C. guilliermondii T-47
In short: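 Broth double dilution following modified CLSI M27-A3, YPAD medium, compound range 64 to 0.003 μg/mL; inoculum from 1×10^−3 OD600 suspension diluted 1:100. After 24 h at 30 °C, MIC80 taken as lowest concentration reducing OD600 by >80% versus no-drug control; triplicates, fluconazole and voriconazole as controls.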

C. albicans SN152 = assay: Disk diffusion assay for antifungal tolerance; details: casitone agar, disk with 25 μg, 30° C.
Description: (§2) To investigate how tolerance is affected by the azole-COX inhibitor hybrids, a comparison of hybrids 1 and 5 to FLC and VOR in a disk diffusion assay was performed. Tolerance was evaluated by comparing the zone of inhibition after 24 h to that after 48 h. The assay was carried out on three representative strains: C. albicans, C. parapsilosis, and C. tropicalis (FIG. 7).
(§3) As shown, compared to FLC and VOR, azole-COX inhibitor hybrids 1 and 5 display reduced antifungal tolerance. Disk diffusion assays were carried out on casitone agar plates containing disks loaded with 25 μg of the tested hybrids. Plates were imaged after 24 h to evaluate antifungal activity (left half of the plate image) and after 48 h to evaluate tolerance (right half of the plate image).
(§4) Disk diffusion assay: Antifungal activities of select hybrids against C. albicans SN152, C. parapsilosis ATCC 22019, and C. tropicalis 660 were confirmed by the disk diffusion assay. Strains were streaked from frozen culture onto YPAD agar and incubated for 24 h at 30° C. Two or three colonies were placed into 1 mL of PBS solution, and OD600 was determined with a TECAN Infinite. OD600 was adjusted to 0.02 for C. albicans SN152 and to 0.025 for C. parapsilosis ATCC 22019 and C. tropicalis 660 by dilution with PBS. Aliquots of 200 μL of the diluted cultures of each strain were plated onto 15-mL casitone agar plates and spread using sterile beads (3 mm, Fisher Scientific). After the plates dried, a single disk (6-mm diameter, Becton Dickinson) with 25 μg of the hybrid being tested was placed in the center of each plate. Plates were then incubated at 30° C. and photographed under the same imaging conditions after 24 h and 48 h. FLC and VOR were used as control drugs.

[1] = test system: C. parapsilosis ATCC 22019; assay: Disk diffusion assay for antifungal tolerance; details: casitone agar, disk with 25 μg, 30° C.
Description: as §2, §3, §4

C. tropicalis 660 = assay: Disk diffusion assay for antifungal tolerance; details: casitone agar, disk with 25 μg, 30° C.
Description: as §2, §3, §4

[2] = test system: erg11ΔΔ/erg3ΔΔ mutant C. albicans; assay: Growth curve analysis of C. albicans lacking CYP51; details: YPAD, 30° C., 48 h
Description: The clinically used FLC and VOR act primarily by preventing ergosterol biosynthesis via inhibition of CYP51. Analysis was done to determine whether fungal growth inhibition by the hybrids required the presence of the ERG11 gene that encodes for CYP51. The antifungal activities of hybrids 1 and 5 and of FLC and VOR were determined against an erg11ΔΔ/erg3ΔΔ mutant C. albicans strain and against C. albicans SN152 from which this double knockout strain was derived (Table S2). […] Yeast growth was followed at OD600 over 48 h in 96-well plates containing serial double dilutions of the tested hybrids.
Cells of erg11ΔΔ/erg3ΔΔ mutant C. albicans were grown in YPAD media at 30° C. and treated with different concentrations of the tested hybrids. Growth was measured by recording the OD600 values every 40 minutes over a 48-h course on an automated plate reader.
Growth curve analyses: Growth curves were determined using the double-dilution method in 96-well plates. Starter cultures were streaked from glycerol stock onto YPAD agar plates and grown for 24 h at 30° C. Colonies were suspended in 1 mL PBS and diluted to 1×10^−3 OD600 and then diluted 1:100 into fresh medium. Hybrids dissolved in DMSO were added to YPAD broth (32 μL stock solution in 1218 μL of YPAD broth), and serial double dilutions of hybrids in YPAD were prepared in flat-bottomed 96-well microplates (Corning) to enable testing of concentrations ranging from 64 μg/mL to 1 μg/mL. Control wells with yeast cells but no drug (100% growth) and blank wells containing only YPAD (0% growth) were prepared. An equal volume (100 μL) of yeast suspensions in YPAD broth was added to each well with the exceptions of the blank wells. Growth was determined at 30° C. by measuring the OD600 using a plate reader (Infinite M200 PRO, Tecan) every 40 minutes over 48 h. Each concentration was tested in triplicate, and results were confirmed by two independent sets of experiments. FLC and VOR were used as control drugs.

[3] = entire range of concentrations (64 to 1 μg/mL)

Row | SMILES | MIC80 (C. albicans ATCC 24433) [µg/mL] | MIC80 (C. albicans ATCC 90028) [µg/mL] | MIC80 (C. guilliermondii T-47) [µg/mL] | Tolerance: zone of inhibition after 48 h compared with 24 h (C. albicans SN152) | Tolerance: zone of inhibition after 48 h compared with 24 h [1] | Tolerance: zone of inhibition after 48 h compared with 24 h (C. tropicalis 660) | Effect on growth (OD600) of the double knockout mutant [2, 3] | MIC80 against C. albicans 24433 (C. albicans ATCC 24433) [µg/mL] | MIC80 against C. albicans 90028 (C. albicans ATCC 90028) [µg/mL] | MIC80 against C. guilliermondii T-47 (C. guilliermondii T-47) [µg/mL] | Effect on growth (OD600) of the double knockout mutant ([2]; at 64 μg/mL, the highest concentration tested)
1 | OC(Cn1cncn1)(Cn1cncn1)c1ccc(F)cc1F [FLC, fluconazole] | 1 (≈ 3.27 µM) | 0.5 (≈ 1.63 µM) | 4 (≈ 13.1 µM) | covered by drug tolerant colonies | covered by drug tolerant colonies | the drug tolerant subpopulation was smaller | no significant effect on the growth |  |  |  | 
2 | CC(C)Cc1ccc([C@H](C)C(=O)NC[C@](O)(Cn2cncn2)c2ccc(F)cc2F)cc1 [Hybrid 1] |  |  |  | reduced tolerance | reduced tolerance | reduced tolerance | clear dose-dependent reduction in growth | 0.007 (≈ 0.0158 µM) | 0.003 (≈ 0.00678 µM) | 0.06 (≈ 0.136 µM) | 
3 | C[C@H](C(=O)NC[C@](O)(Cn1cncn1)c1ccc(F)cc1F)c1ccc(-c2ccccc2)c(F)c1 [Hybrid 5] |  |  |  | reduced tolerance | reduced tolerance; also recorded: markedly lower than that to VOR | reduced tolerance | clear dose-dependent reduction in growth | 0.03 (≈ 0.0624 µM) | 0.015 (≈ 0.0312 µM) | 0.5 (≈ 1.04 µM) | 
4 | C[C@@H](c1ncncc1F)[C@](O)(Cn1cncn1)c1ccc(F)cc1F [VOR, voriconazole, reference compound] | 0.015 (≈ 0.0429 µM) | 0.007 (≈ 0.02 µM) | 0.06 (≈ 0.172 µM) | covered by drug tolerant colonies | covered by drug tolerant colonies | the drug tolerant subpopulation was smaller |  |  |  |  | Modest reduction in growth
